Measurements published in US20160136123A1, “TREATMENT OF AUTOPHAGY-RELATED DISORDERS” (STC.UNM, priority 2013, published 2016).

Key:
autophagic maturation = settings: e.g. 1 mM, reference [27]; cited from earlier work
HeLa cells = assay: LC3-II conversion immunoblot (LC3-II/actin) with or without bafilomycin A1 after oleic acid pretreatment and starvation; assay type: cell-based, Human
Protocol: Panals (A) and (B): HeLa cells stably expressing mRFP-GFP-LC3 were treated for 20 h with BSA alone (BSA) or with BSA-oleic acid (OA; 500 μM OA) and then starved in EBSS for 90 min (Starv) or incubated in full medium (Full). A, Visualization of lipid droplet accumulation. Cells were treated as in A and lipid droplets stained with Bodipy 493/503. B, High content image analysis. Program (iDev)-assigned masks: blue outline, valid primary objects (cells); green mask, GFP puncta. (C) number of GFP+ puncta per cell from experiments illustrated in A. (D) RFP+ puncta per cell from experiments illustrated in A. High content analysis data: means±s.e. (n=3, where n represents separate experiments; each experimental point in separate experiments contained >500 cells identified by the program as valid primary objects); *, p<0.05 (t-test). (E) HeLa cells were treated with 0, 100, 500 or 1000 μM oleic acid (OA) using BSA as a carrier (BSA-OA) for 20 h, followed by 90 min starvation in EBSS with or without Bafilomycin A1 (BafA1), and LC3-II/actin ratios determined by immunoblotting and densitometry. (F) HeLa cells were treated for 20 h with BSA alone or with BSA-OA (500 μM OA), followed by starvation in EBSS for 90 min with or without Bafilomycin A1 (BafA1) and LC3-II/actin ratios determined by immunoblotting and densitometry. Immunobloting data: means means±s.e., *, p<0.05 (t-test).
Addition of oleic acid (OA) is commonly used to increase cellular LD content. […] The enhancement was detected at both autophagy initiation stage (FIG. 1C; GFP-LC3) and autophagosomal maturation (FIG. 1D; mRFP-GFP), as determined by the acidification-sensitive GFP and acidification-insenstive mRFP probes used to distinguish early autophagosomes and autolysosomes, respectively. […]
Antibodies against endogenous proteins LC3 (MBL), P62 (BD Transduction), Atg16L1 (Cosmo Bio) were used for indirect immunofluorescence analysis. […] SlideBook morphometric analysis software 5.0 (Intelligent Imaging Innovations) was used to quantify the colocalization between Atg16L1 or DAG and lipid droplets. […]

[1] = tested on: HeLa cells stably expressing mRFP-GFP-LC3; assay: High content imaging of LC3 puncta after oleic acid pretreatment; assay type: cell-based, Human; settings: 500 μM BSA-oleic acid 20 h, then full medium or EBSS starvation 90 min
Protocol: Panals (A) and (B): HeLa cells stably expressing mRFP-GFP-LC3 were treated for 20 h with BSA alone (BSA) or with BSA-oleic acid (OA; 500 μM OA) and then starved in EBSS for 90 min (Starv) or incubated in full medium (Full). A, Visualization of lipid droplet accumulation. Cells were treated as in A and lipid droplets stained with Bodipy 493/503. B, High content image analysis. Program (iDev)-assigned masks: blue outline, valid primary objects (cells); green mask, GFP puncta. (C) number of GFP+ puncta per cell from experiments illustrated in A. (D) RFP+ puncta per cell from experiments illustrated in A. High content analysis data: means±s.e. (n=3, where n represents separate experiments; each experimental point in separate experiments contained >500 cells identified by the program as valid primary objects); *, p<0.05 (t-test). (E) HeLa cells were treated with 0, 100, 500 or 1000 μM oleic acid (OA) using BSA as a carrier (BSA-OA) for 20 h, followed by 90 min starvation in EBSS with or without Bafilomycin A1 (BafA1), and LC3-II/actin ratios determined by immunoblotting and densitometry. (F) HeLa cells were treated for 20 h with BSA alone or with BSA-OA (500 μM OA), followed by starvation in EBSS for 90 min with or without Bafilomycin A1 (BafA1) and LC3-II/actin ratios determined by immunoblotting and densitometry. Immunobloting data: means means±s.e., *, p<0.05 (t-test). […]

[2] = tested on: HeLa cells stably expressing mRFP-GFP-LC3B; assay: TRIM family screen control: GFP-LC3B puncta area after pp242; assay type: cell-based, Human; settings: pp242 for 2 h, versus vehicle
Description: Referring to FIG. 1A/A HeLa cells stably expressing mRFP-GFP-LC3B were subjected to TRIM knockdowns, treated with pp242, and imaged to detect nuclear stain (blue) and GFP signal (green). Top, non-targeting siRNA-transfected cells treated with carrier (DMSO) or pp242. White lines, cell borders. Red, LC3B puncta borders. Bottom, representative images of cells subjected to knockdown of TRIM45 and TRIM2, both treated with pp242. (B) Measurement of average area of GFP-LC3B area per cell from cells treated as in (A) (data from multiple 96-well plates with identical siRNA arrangements represent means and ±SE).
Cells were exposed to virus at 4° C. for 1 hour to allow binding but not entry. […] Samples were prepared for analysis of p24, reverse transcriptase, or proviral DNA. […] HIV-1 RT was determined according to the manufacturer's protocol (Enz Chek, Invitrogen). HIV-1 proviral DNA was quantified as previously described (Campbell et al., 2004). […]
HeLa cells stably expressing mRFP-GFP-LC3B were cultured in 96-well plates containing siRNAs against 67 human TRIMs and transfection reagent (Dharmacon). […] Automated image collection of >500 cells (distributed over 49 or fewer fields per well per siRNA knockdown per plate) were machine-analyzed using preset scanning parameters and object mask definition (iDEV software). […] When results were expressed as puncta area per cell, the units corresponded to μm^2/cell.

[3] = tested on: 293T cells and HeLa cells; assay: TRIM5α overexpression: LC3-II abundance (bafilomycin A1 flux assay) and LC3 puncta by high content analysis; assay type: cell-based, Human; settings: GFP-tagged protein overexpressed, compared with GFP alone; with or without bafilomycin A1
Description: FIG. 2A/A illustrates mapping of the p62/Sequestosome 1 region interacting with RhTRIM5α. Schematic (left): domain organization of p62 and deletion/point mutation constructs employed to analyze interactions with RhTRIM5α (right panel). TR, TRIM5α and TRAF6 binding region; NLS, nuclear localization signal; NES, nuclear export signal; LIR, LC3-interacting region; KIR, KEAP1-interacting region. Analysis (right): Myc-RhTRIM5α was radiolabeled with [^35S] methionine by in vitro translation and analyzed by GST pulldown assays with GST-p62 fusion proteins. Top, autoradiogram. Bottom, Coomassie Brilliant Blue (CBB)-stained SDS-polyacrylamide gel with GST-p62 proteins. (B) Effects of TRIM5α knockdown in HeLa cells on GFP-LC3 puncta (area/cell) under basal (DMSO control) and autophagy-inducing (pp242) conditions. HuT5a, human TRIM5α; Scr, Scrambled control. […]
We first tested p62 and TRIM5α interaction (FIG. S2A) and co-localization (FIG. S2B), and mapped the TRIM5α-binding domain on p62 to the region demarcated by residues 170-256 (FIG. 2A). […] When TRIM5α was knocked down, fewer LC3 puncta were detected ([…]) and LC3-II yields (FIG. 2A/B,C) upon induction with pp242 were reduced. […] In these experiments, high content analysis was used to differentiate GFP-TRIM5α-transfected or GFP-transfected cells from untransfected cells based on their green fluorescence. […]

## CCCCCCCC/C=C\CCCCCCCC(=O)O [OA, oleic acid]
Autophagic maturation
  effect of high concentrations of OA on autophagic maturation: inhibitory to autophagic maturation
HeLa cells; 0, 100, 500 or 1000 μM OA 20 h, 90 min starvation in EBSS with or without bafilomycin A1
  OA concentration optimal for enhancing starvation-induced autophagy (LC3-II/actin titration): 500 µM
HeLa cells; 500 μM BSA-OA 20 h, EBSS 90 min with or without bafilomycin A1
  effect of OA pretreatment in the bafilomycin A1 inhibition assay (LC3-II/actin): enhanced cellular capacity for initiation of autophagy upon starvation
HeLa cells; 1 mM OA 20 h, 90 min starvation in EBSS
  effect of 1 mM OA on starvation-induced autophagy (LC3-II/actin titration): either a plateau or potentially inhibitory effects on autophagy
[1]
  effect of increase in lipid droplets following OA pretreatment on autophagy (GFP+ and RFP+ LC3 puncta per cell): enhanced basal and induced autophagy

## CC(C)n1nc(-c2cc3cc(O)ccc3[nH]2)c2c(N)ncnc21 [pp242]
[2]
  induction of GFP-LC3B puncta area: 17 fold

## C15A mutant of RhTRIIVI5α: catalytically inactive (E3 ligase) C15A mutant of rhesus TRIM5α
[3]
  effect of TRIM5α overexpression on autophagy (LC3-II, LC3 puncta): induced autophagy comparably to wt RhTRIM5α
